This note sets out measurements from US11471512B2, “Pharmaceutical compositions of a peptide” (Merck Sharp & Dohme Corp., priority 2019, dated 2022).

Starred links: 1 amine or outer side, 2 acyl side, 3 side chain; linkers in the order of their positions; H or OH if unused. Non-standard residues stand in square brackets, D forms with d. Residues, ends and D or L forms follow the SMILES beside them. Groups on a side chain read outwards from the residue. *: point of attachment. γGlu = O=C(O)[C@H](CCC(=O)[*:2])N[*:1]; Palmitoyl = CCCCCCCCCCCCCCCC(=O)*; Aib = CC(C)(N)C(=O)O

The nature of series [1]: Chemical stability of the peptide in aqueous formulation as a function of pH. In kind it is physicochemical. As to conditions: above pH 7.6.
The nature of series [2]: Water solubility of the peptide as a function of pH. Type of series: physicochemical. To be noted: between pH 4 and pH 6.

As to `CCCCCCCCCCCCCCCC(=O)N[C@@H](CCC(=O)N[C@@H](CCC(=O)NCCCC[C@H](NC(=O)[C@H](CC(=O)O)NC(=O)[C@H](CO)NC(=O)[C@@H](NC(=O)[C@H](Cc1ccccc1)NC(=O)[C@@H](NC(=O)CNC(=O)[C@H](CCC(N)=O)NC(=O)C(C)(C)NC(=O)[C@@H](N)Cc1c[nH]cn1)[C@@H](C)O)[C@@H](C)O)C(=O)N[C@@H](CO)C(=O)N[C@@H](CCCCN)C(=O)N[C@@H](Cc1ccc(O)cc1)C(=O)N[C@@H](CC(C)C)C(=O)N[C@@H](CC(=O)O)C(=O)NC(C)(C)C(=O)N[C@@H](CCCNC(=N)N)C(=O)N[C@@H](C)C(=O)N[C@@H](C)C(=O)N[C@@H](CCC(N)=O)C(=O)N[C@@H](CC(=O)O)C(=O)N[C@@H](Cc1ccccc1)C(=O)N[C@H](C(=O)N[C@@H](CCC(N)=O)C(=O)N[C@@H](Cc1c[nH]c2ccccc12)C(=O)N[C@@H](CC(C)C)C(=O)N[C@@H](CCSC)C(=O)N[C@@H](CC(N)=O)C(=O)N[C@H](C(=O)N[C@@H](CCCCN)C(=O)N[C@@H](CCC(N)=O)C(=O)O)[C@@H](C)O)C(C)C)C(=O)O)C(=O)O` [peptide of SEQ ID NO. 1, HUQGTFTSD K(γGlu-γGlu-C16) SKYLD aibRAAQDFVQWLMNTKγGlu-amide] (H-H[Aib]QGTFTSDK([γGlu-γGlu-Palmitoyl])SKYLD[Aib]RAAQDFVQWLMNTKQ-OH; N-terminus and C-terminus assumed), the chemical stability result in series [1] is recorded as “poor chemical stability”. Also, in series [2], the water solubility result is on record as “poor water solubility”.
